The numbers were not newly measured in US10028900B2, “Photostable sunscreen composition for topical application” (KANCOR INGREDIENTS LTD, priority 2014, dated 2018), which cites them from elsewhere.

Molecules are shown by their SMILES.

The conditions of this data set: oil / water.

Take `CCCCC(CC)COC(=O)/C=C/c1ccc(OC)cc1` (centres unmarked) [Octyl-methoxy cinnamate, 2-ethylhexyl (2E)-3-(4-methoxyphenyl) prop-2-enoate]: the “Solubility (in words)” value was “oil soluble and water insoluble”. As to `COc1ccc(C(=O)CC(=O)c2ccc(C(C)(C)C)cc2)cc1` [Avobenzone, 1-(4-methoxyphenyl)-3-(4-tert-butylphenyl)propane-1,3-dione], the “Solubility (in words)” value is “oil soluble and water insoluble”.
